Reference: patent US11059832B2, “HPK1 inhibitors and methods of using same” (University Health Network, priority 2015, dated 2021)
pIC50: −log10 of the molar value.

Experiments:
LCK = target: T1, LCK (Homo sapiens, UniProt P06239); assay: LCK inhibition, FRET based Z'-LYTE Kinase Assay; format: biochemical; settings: 25 nM LCK, 180 μM ATP; read-out: IC50 Range Lck
T1 construct: purchased Invitrogen P3043
Procedure: (§1) FLT3 and LCK compound inhibition were determined using FRET based Z′-LYTE Kinase Assay Kit with Tyrosine 2 peptide as the substrate (Invitrogen cat #PV3191). […] The % inhibition values were determined according to the manufacturer's directions and IC50 values were obtained using a non-linear 4 point logistic curve fit (XLfit4, IDBS).

[1] = test system: ERK1/2 T202/Y204 phosphorylation in α-CD3 stimulated Jurkat E6.1 cells; assay: In vitro phosphorylation assay, ERK1/2 T202/Y204 (immunoblot); format: cell-based; settings: Homo sapiens, 4 h pretreatment, read-out: ERK1/2 T202/Y204 Phosphorylation Onset Inhibition
Procedure: (§2) Jurkat E6.1 cells were obtained from American Type Culture Collection (ATCC, Manassas, Va.), and maintained according to the supplier's instructions. Cells were washed three times and starved in RPMI 1640 medium supplemented with 0.5% fetal calf serum for 18 h at 37° C. Serum starved cells were pretreated with the indicated concentration of inhibitor for 4 hours before stimulation with 10 μg/ml α-CD3 antibody (BioLegend, Inc., San Diego, Calif.) for 10 min at 37° C. The cells were washed once in phosphate-buffered saline (pH 7.4) containing 10 mm sodium pyrophosphate, 10 mm sodium fluoride, 10 mm EDTA, and 1 mm sodium orthovanadate. Protein lysates were prepared using ice-cold radioimmunoprecipitation assay (RIPA) lysis buffer. A total of 100 μg of cell lysate was loaded onto Bis-Tris gels (Life Technologies, Carlsbad, Calif.) with full-range molecular weight marker as a size reference, and resolved by SDS-PAGE electrophoresis. Proteins were transferred to PVDF membrane (Millipore, Billerica, Mass.), blocked and probed with antibodies for phospho-SLP-76 (Ser376) (rabbit polyclonal #13177; Cell Signaling Technology Inc., Danvers, Mass.), SLP-76 (rabbit polyclonal #4958; Cell Signaling Technology Inc., Danvers, Mass.), phospho-ERK (mouse monoclonal sc-7383; Santa Cruz Biotechnology Inc., Santa Cruz, Calif.) and ERK1/2 (rabbit polyclonal 06-182; Millipore, Billerica, Mass.). Secondary antibodies were diluted 1 in 15,000 and incubated for 1 h at rt. Protein bands were visualized and quantified using Odyssey near infrared imager (LI-COR, Lincoln, Nebr.).
(§3) Table 2 below lists effects of representative compounds of the present invention against SLP-76 serine 376 phosphorylation and ERK1/2 T202/Y204 phosphorylation in α-CD3 stimulated Jurkat E6.1 cells.

FLT3 = target: T2, FLT3 (Homo sapiens, UniProt P36888); assay: FLT3 inhibition, FRET based Z'-LYTE Kinase Assay; format: biochemical; settings: 1 nM FLT3, 940 μM ATP; read-out: IC50 Range Flt3
T2 construct: purchased Invitrogen PV3182
T2 sequence (P36888 27-993): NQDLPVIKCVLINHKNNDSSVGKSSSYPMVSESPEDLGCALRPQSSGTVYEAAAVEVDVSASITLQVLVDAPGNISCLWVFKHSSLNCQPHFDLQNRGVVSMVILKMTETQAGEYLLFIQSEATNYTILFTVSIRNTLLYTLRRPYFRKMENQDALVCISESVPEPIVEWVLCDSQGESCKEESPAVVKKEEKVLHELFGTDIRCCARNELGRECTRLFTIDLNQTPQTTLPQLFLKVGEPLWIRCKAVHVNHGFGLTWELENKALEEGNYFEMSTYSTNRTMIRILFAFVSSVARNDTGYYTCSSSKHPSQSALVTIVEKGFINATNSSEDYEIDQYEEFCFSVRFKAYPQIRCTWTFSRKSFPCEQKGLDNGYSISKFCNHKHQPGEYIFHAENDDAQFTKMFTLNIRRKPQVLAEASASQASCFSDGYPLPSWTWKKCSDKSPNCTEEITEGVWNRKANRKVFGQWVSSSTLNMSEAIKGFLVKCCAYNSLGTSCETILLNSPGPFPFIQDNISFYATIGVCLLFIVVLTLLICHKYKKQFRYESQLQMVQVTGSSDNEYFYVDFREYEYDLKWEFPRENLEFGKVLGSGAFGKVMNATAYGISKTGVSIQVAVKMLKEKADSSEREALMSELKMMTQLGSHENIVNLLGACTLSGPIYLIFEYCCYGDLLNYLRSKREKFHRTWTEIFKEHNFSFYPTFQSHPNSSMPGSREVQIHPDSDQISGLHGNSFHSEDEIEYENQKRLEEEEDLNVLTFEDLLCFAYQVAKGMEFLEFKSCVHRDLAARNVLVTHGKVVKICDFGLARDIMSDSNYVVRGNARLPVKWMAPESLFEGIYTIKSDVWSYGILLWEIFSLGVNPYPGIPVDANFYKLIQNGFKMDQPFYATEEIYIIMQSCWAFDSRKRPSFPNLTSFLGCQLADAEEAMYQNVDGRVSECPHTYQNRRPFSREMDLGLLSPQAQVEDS
Procedure: as §1

[2] = test system: SLP-76 serine 376 phosphorylation in α-CD3 stimulated Jurkat E6.1 cells; assay: In vitro phosphorylation assay, SLP-76 Ser376 (immunoblot); format: cell-based; settings: Homo sapiens, 4 h pretreatment, substantive = >75% inhibition as estimated by immunoblot analysis, read-out: SLP76 S376 Phosphorylation Onset-Substantive* Inhibition
Procedure: as §2, §3

human HPK1 (MAP4K1) = target: T3, human HPK1 (MAP4K1) (Homo sapiens, UniProt Q92918); assay: HPK1 inhibition assay (indirect ELISA); format: biochemical; settings: GST-HPK1 0.6 nM, 12 μM ATP; read-out: IC50 Range HPK1
T3 construct: human HPK1 (aa 1-346); purchased Invitrogen PV6355
T3 sequence (Q92918 1-346): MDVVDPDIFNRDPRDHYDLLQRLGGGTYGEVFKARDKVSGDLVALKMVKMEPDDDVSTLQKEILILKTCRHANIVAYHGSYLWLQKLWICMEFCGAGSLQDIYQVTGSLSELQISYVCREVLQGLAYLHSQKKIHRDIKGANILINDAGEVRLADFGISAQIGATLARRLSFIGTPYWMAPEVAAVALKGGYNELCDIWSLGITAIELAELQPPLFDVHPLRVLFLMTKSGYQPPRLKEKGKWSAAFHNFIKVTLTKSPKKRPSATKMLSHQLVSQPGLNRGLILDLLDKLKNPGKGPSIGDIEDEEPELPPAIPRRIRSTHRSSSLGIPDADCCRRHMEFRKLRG
Outline: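 GST-tagged human HPK1 (aa 1-346, 0.6 nM) phosphorylated MBP-coated wells with 12 μM ATP in MOPS pH 7.2/Mg2+ buffer for 30 min after 15-min compound preincubation; phospho-Thr detected by antibody ELISA with TMB, 450 nm. Tested at 10 μM or 10-point titration (typically 50-0.1 μM); IC50 by 4-parameter logistic fit.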

T1 sequence (P06239 whole entry, species assumed): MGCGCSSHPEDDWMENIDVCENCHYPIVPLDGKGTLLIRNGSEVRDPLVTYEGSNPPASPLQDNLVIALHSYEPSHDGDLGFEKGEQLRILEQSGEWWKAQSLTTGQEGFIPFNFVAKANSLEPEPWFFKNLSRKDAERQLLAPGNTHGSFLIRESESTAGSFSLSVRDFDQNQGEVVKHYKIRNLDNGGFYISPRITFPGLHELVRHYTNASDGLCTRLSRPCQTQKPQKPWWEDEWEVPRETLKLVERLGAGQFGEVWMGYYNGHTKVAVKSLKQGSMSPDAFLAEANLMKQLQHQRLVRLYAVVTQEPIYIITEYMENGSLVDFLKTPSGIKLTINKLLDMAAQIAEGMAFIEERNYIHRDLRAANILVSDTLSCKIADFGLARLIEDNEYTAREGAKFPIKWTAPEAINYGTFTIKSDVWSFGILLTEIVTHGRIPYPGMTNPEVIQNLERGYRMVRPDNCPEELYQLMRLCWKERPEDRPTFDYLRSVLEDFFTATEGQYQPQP

Compound | pIC50 (LCK) | pIC50 (FLT3) | pIC50 (human HPK1 (MAP4K1)) | minimal effective concentration [1] [µM] | IC75 [2] [nM]
CN1CCN(c2ccc3nc(-c4c(N)c5cscc5[nH]c4=O)[nH]c3c2)CC1 [Example A23, 4-amino-3-(6-(4-methylpiperazin-1-yl)-1H-benzo[d]imidazol-2-yl)thieno[3,4-b]pyridin-2(1H)-one] | ≥ 7.30 | ≥ 7.30 | ≥ 7.30 | > 3 | 300 to 1000
CN1CCC(Nc2c(-c3nc4ccc(N5CCOCC5)cc4[nH]3)c(=O)[nH]c3sccc23)CC1 [Example A18, 4-((1-methylpiperidin-4-yl)amino)-5-(6-morpholino-1H-benzo[d]imidazol-2-yl)thieno[2,3-b]pyridin-6(7H)-one] | 6.30 to 7.30 | ≥ 7.30 | ≥ 7.30 | > 3 | 300 to 1000
CN1CCN(c2ccc3nc(-c4c(N[C@H]5CC[C@H](O)CC5)c5sccc5[nH]c4=O)[nH]c3c2)CC1 [Example A37, 7-(((1r,4r)-4-hydroxycyclohexyl)amino)-6-(6-(4-methylpiperazin-1-yl)-1H-benzo[d]imidazol-2-yl)thieno[3,2-b]pyridin-5(4H)-one] | ≥ 7.30 | ≥ 7.30 | ≥ 7.30 | 1 to 3 | 100 to 300
CN1CCN(c2ccc3nc(-c4c(N)c5sccc5[nH]c4=O)[nH]c3c2)CC1 [Example A30, 7-amino-6-(6-(4-methylpiperazin-1-yl)-1H-benzo[d]imidazol-2-yl)thieno[3,2-b]pyridin-5(4H)-one] | ≥ 7.30 | ≥ 7.30 | ≥ 7.30 | > 3 | 300 to 1000
CN1CCN(c2ccc3nc(-c4c(N[C@@H]5CC[C@H](O)C5)c5sccc5[nH]c4=O)[nH]c3c2)CC1 (relative stereo) [Example A36, 7-(((1R*,3S*)-3-hydroxycyclopentyl)amino)-6-(6-(4-methylpiperazin-1-yl)-1H-benzo[d]imidazol-2-yl)thieno[3,2-b]pyridin-5(4H)-one] | ≥ 7.30 | ≥ 7.30 | ≥ 7.30 | – | –
CN1CCN(c2ccc3nc(-c4c(NC5CCNCC5(F)F)c5ccsc5[nH]c4=O)[nH]c3c2)CC1 (centres unmarked) [Example A15, 4-((3,3-difluoropiperidin-4-yl)amino)-5-(6-(4-methylpiperazin-1-yl)-1H-benzo[d]imidazol-2-yl)thieno[2,3-b]pyridin-6(7H)-one] | ≥ 7.30 | ≥ 7.30 | ≥ 7.30 | – | –
Cc1csc2[nH]c(=O)c(-c3nc4ccc(N5CCN(C)CC5)cc4[nH]3)c(N)c12 [Example A2, 4-amino-3-methyl-5-(6-(4-methylpiperazin-1-yl)-1H-benzo[d]imidazol-2-yl) thieno[2,3-b]pyridin-6(7H)-one] | 6.30 to 7.30 | ≥ 7.30 | ≥ 7.30 | – | –
Nc1c(-c2nc3ccc(N4CCOCC4)cc3[nH]2)c(=O)[nH]c2sccc12 [Example A4, 4-amino-5-(6-morpholino-1H-benzo[d]imidazol-2-yl)thieno[2,3-b]pyridin-6(7H)-one] | 6.30 to 7.30 | ≥ 7.30 | ≥ 7.30 | – | –
CN1CCN(c2ccc3nc(-c4c(N)c5c(N6CCNCC6)csc5[nH]c4=O)[nH]c3c2)CC1 [Example A21, 4-amino-5-(6-(4-methylpiperazin-1-yl)-1H-benzo[d]imidazol-2-yl)-3-(piperazin-1-yl)thieno[2,3-b]pyridin-6(7H)-one] | < 6.30 | 6.30 to 7.30 | ≥ 7.30 | > 3 | > 3000

Second part, led by results:

pIC50 (LCK) | pIC50 (FLT3) | pIC50 (human HPK1 (MAP4K1)) | Compound | minimal effective concentration [1] [µM] | IC75 [2] [nM]
6.30 to 7.30 | ≥ 7.30 | ≥ 7.30 | CN1CCN(c2ccc3nc(-c4c(N[C@H]5CCCC[C@H]5O)c5ccsc5[nH]c4=O)[nH]c3c2)CC1 [Example A57, 4-(((1S,2R)-2-hydroxy-cyclohexyl)amino)-5-(6-(4-methylpiperazin-1-yl)-1H-benzo[d]imidazol-2-yl)thieno-[2,3-b]pyridin-6(7H)-one] | > 3 | 300 to 1000
6.30 to 7.30 | ≥ 7.30 | ≥ 7.30 | CN1CCN(c2ccc3nc(-c4c(N[C@@H]5CCCC[C@@H]5O)c5sccc5[nH]c4=O)[nH]c3c2)CC1 [Example A46, 7-(((1R,2S)-2-hydroxycyclohexyl)amino)-6-(6-(4-methylpiperazin-1-yl)-1H-benzo[d]imidazol-2-yl)thieno[3,2-b]pyridin-5(4H)-one] | – | –
≥ 7.30 | ≥ 7.30 | ≥ 7.30 | CN1CCC(Nc2c(-c3nc4ccc(N5CCOCC5)cc4[nH]3)c(=O)[nH]c3ccsc23)CC1 [Example A45, 7((1-methylpiperidin-4-yl)amino)-6-(6-morpholino-1H-benzo[d]imidazol-2-yl)thieno[3,2-b]pyridin-5(4H)-one] | – | –
6.30 to 7.30 | ≥ 7.30 | ≥ 7.30 | O=c1[nH]c2ccsc2c(NC2CCNCC2)c1-c1nc2ccc(N3CCOCC3)cc2[nH]1 [Example A43, 6-(6-morpholino-1H-benzo[d]imidazol-2-yl)-7-(piperidin-4-ylamino)thieno[3,2-b]pyridin-5(4H)-one] | > 3 | 100 to 300
≥ 7.30 | ≥ 7.30 | ≥ 7.30 | CN1CCN(c2ccc3nc(-c4c(NCc5ccccn5)c5sccc5[nH]c4=O)[nH]c3c2)CC1 [Example A53, 6-(6-(4-methylpiperazin-1-yl)-1H-benzo[d]imidazol-2-yl)-7-((pyridin-2-ylmethyl)amino)-thieno[3,2-b]pyridin-5(4H)-one] | – | –
